Values quoted from earlier work as cited in patent publication US20040253299A1, “Transdermal therapeutic system (reservoir-tts) for using pramipexole and ropinirole” (priority 2001, published 2004).

Settings: administered orally

Compound | bioavailability [%]
CCCN(CCC)CCc1cccc2c1CC(=O)N2 [Ropinirole, 4-(2-di-n-propylaminoethyl)-2-(3H)-indolone] | 50
CCCNC1CCc2nc(N)sc2C1 (centres unmarked) [pramipexole, 2-amino-6-n-propylamino-4,5,6,7-tetrahydrobenzothiazole] | 90
